Data published in patent US8674111B2, “Oxazole and thiazole derivatives as ALX receptor agonists” (Actelion Pharmaceuticals Ltd., priority 2009, dated 2014).
pEC50: −log10 of the molar value.

Molecular target: T1, recombinant human ALX receptor (Homo sapiens, UniProt P25090)
T1 construct: expressed in transfected cells; host or cells: HEK293 (HEK293-hALXR-Gα16)
T1 sequence (P25090 1-351): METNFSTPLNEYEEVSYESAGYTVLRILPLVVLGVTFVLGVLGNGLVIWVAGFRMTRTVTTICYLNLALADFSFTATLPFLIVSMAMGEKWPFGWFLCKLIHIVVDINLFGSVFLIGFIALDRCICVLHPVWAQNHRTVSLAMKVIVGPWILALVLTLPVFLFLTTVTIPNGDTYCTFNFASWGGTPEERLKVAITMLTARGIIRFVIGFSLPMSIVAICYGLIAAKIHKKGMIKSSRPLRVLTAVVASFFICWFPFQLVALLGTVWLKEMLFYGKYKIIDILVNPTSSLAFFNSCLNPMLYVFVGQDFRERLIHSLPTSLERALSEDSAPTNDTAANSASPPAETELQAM
Test: Intracellular calcium measurements (FLIPR), ALX receptor agonistic activity
Assay type: cell-based
Details: HEK293-hALXR-Gα16 cells; Fluo-4 calcium fluorescence; normalized to WKYMVm 10 nM
Experimental: The ALX receptor agonistic activity of the compounds of formula (I) is determined in accordance with the following experimental method.
Intracellular Calcium Measurements:
Cells expressing recombinant human ALX receptor and the G-protein Gα16 (HEK293-hALXR-Gα16) were grown to 80% confluency in Growing Medium (GM). Cells were detached from culture dishes with a cell dissociation buffer (Invitrogen, 13151-014), and collected by centrifugation at 1,000 rpm at rt for 5 min in Assay Buffer (AB) (equal parts of Hank's BSS (Gibco, 14065-049) and DMEM without Phenol Red (Gibco, 11880-028)). After 60 min incubation at 37° C. under 5% CO2 in AB supplemented with 1 μM Fluo-4 (AM) (Invitrogen, F14202) and 20 mM HEPES (Gibco, 15630-056), the cells were washed and resuspended in AB. They were then seeded onto 384-well FLIPR assay plates (Greiner, 781091) at 50,000 cells in 70 μl per well and sedimented by centrifugation at 1,000 rpm for 1 min. Stock solutions of test compounds were made up at a concentration of 10 mM in DMSO, and serially diluted in AB to concentrations required for activation dose response curves. WKYMVm (Phoenix Peptides) was used as a reference agonist. A FLIPR Tetra instrument (Molecular Devices) was operated according to the manufacturer's standard instructions, adding 4 μl of test compound dissolved at 10 mM in DMSO and diluted prior to the experiment in assay buffer to obtain the desired final concentration. Changes in fluorescence were monitored before and after the addition of test compounds at lex=488 nm and lem=540 nm. Emission peak values above base level after compounds addition were exported after base line subtraction. Values were normalized to high-level control (WKYMVm compound, 10 nM final concentration) after subtraction of the base line value (AB addition).

SMILES | pEC50
COc1cccc(COC(=O)Nc2coc(Cn3ccc(C(C)=O)n3)n2)c1 [Example 12, [2-(3-Acetyl-pyrazol-1-ylmethyl)-oxazol-4-yl]-carbamic acid 3-methoxy-benzyl ester] | 9.00
CC(=O)c1ccn(Cc2nc(NC(=O)OCc3ccccc3Cl)co2)n1 [Example 3, [2-(3-Acetyl-pyrazol-1-ylmethyl)-oxazol-4-yl]-carbamic acid 2-chloro-benzyl ester] | 9.15
O=C(Nc1coc(Cn2cc(Br)cn2)n1)OCc1ccccc1Cl [Example 10, [2-(4-Bromo-pyrazol-1-ylmethyl)-oxazol-4-yl]-carbamic acid 2-chloro-benzyl ester] | 7.14
CC(=O)c1cccc(Cc2nc(NC(=O)/C=C/c3ccc(C(F)(F)F)cc3)co2)c1 [Example 17, (E)-N-[2-(3-Acetyl-benzyl)-oxazol-4-yl]-3-(4-trifluoromethyl-phenyl)-acrylamide] | 5.88
CC(F)(F)CCCCc1nc(NC(=O)OCc2ccccc2Cl)co1 [Example 4, [2-(5,5-Difluoro-hexyl)-oxazol-4-yl]-carbamic acid 2-chloro-benzyl ester] | 7.89
CC(=O)c1ccn(Cc2nc(NC(=O)OCc3ccc(C(F)(F)F)cc3)co2)n1 [Example 13, [2-(3-Acetyl-pyrazol-1-ylmethyl)-oxazol-4-yl]-carbamic acid 4-trifluoromethyl-benzyl ester] | 7.92
CC(=O)c1ccc(Cc2nc(NC(=O)c3nc(C)oc3-c3cccc(Cl)c3)cs2)s1 [Example 19, 5-(3-Chloro-phenyl)-2-methyl-oxazole-4-carboxylic acid [2-(5-acetyl-thiophen-2-ylmethyl)-thiazol-4-yl]-amide] | 5.44
CC(=O)c1ccn(Cc2nc(NC(=O)OCc3ccc(F)cc3Cl)co2)n1 [Example 11, [2-(3-Acetyl-pyrazol-1-ylmethyl)-oxazol-4-yl]-carbamic acid 2-chloro-4-fluoro-benzyl ester] | 9.30
CC(=O)c1ccc(Cc2nc(NC(=O)c3ncoc3-c3ccccc3)cs2)s1 [Example 18, 5-Phenyl-oxazole-4-carboxylic acid [2-(5-acetyl-thiophen-2-ylmethyl)-thiazol-4-yl]-amide] | 5.80
CC(=O)c1ccc(Cc2nc(NC(=O)c3nc(C)oc3-c3cccc(C)c3)cs2)o1 [Example 21, 2-Methyl-5-m-tolyl-oxazole-4-carboxylic acid [2-(5-acetyl-furan-2-ylmethyl)-thiazol-4-yl]-amide] | 6.67
Cc1cccc(-c2oc(C)nc2C(=O)Nc2coc(CCCCC(C)(F)F)n2)c1 [Example 5, 2-Methyl-5-m-tolyl-oxazole-4-carboxylic acid [2-(5,5-difluoro-hexyl)-oxazol-4-yl]-amide] | 6.71
CC(=O)CCCCc1nc(NC(=O)c2ncoc2-c2ccc(F)cc2)co1 [Example 8, 5-(4-Fluoro-phenyl)-oxazole-4-carboxylic acid [2-(5-oxo-hexyl)-oxazol-4-yl]-amide] | 7.07
CC(=O)c1ccc(Cc2nc(NC(=O)OCc3ccccc3Cl)co2)s1 [Example 14, [2-(5-Acetyl-thiophen-2-ylmethyl)-oxazol-4-yl]-carbamic acid 2-chloro-benzyl ester] | 8.66
CC(=O)CCCCc1nc(NC(=O)c2ncoc2-c2ccccc2)co1 [Example 2, 5-Phenyl-oxazole-4-carboxylic acid [2-(5-oxo-hexyl)-oxazol-4-yl]-amide] | 7.74
CC(=O)c1ccc(Cc2nc(NC(=O)c3ncoc3-c3ccccc3)cs2)o1 [Example 20, 5-Phenyl-oxazole-4-carboxylic acid [2-(5-acetyl-furan-2-ylmethyl)-thiazol-4-yl]-amide] | 7.21
CC(=O)CCCCc1nc(NC(=O)c2ncsc2-c2cccc(F)c2)co1 [Example 7, 5-(3-Fluoro-phenyl)-thiazole-4-carboxylic acid [2-(5-oxo-hexyl)-oxazol-4-yl]-amide] | 6.11
CCc1nc(C(=O)Nc2coc(CCCCC(C)=O)n2)c(-c2ccccc2)o1 [Example 9, 2-Ethyl-5-phenyl-oxazole-4-carboxylic acid [2-(5-oxo-hexyl)-oxazol-4-yl]-amide] | 8.49
CC(=O)CCCCc1nc(NC(=O)OCc2ccccc2Cl)co1 [Example 1, [2-(5-Oxo-hexyl)-oxazol-4-yl]-carbamic acid 2-chloro-benzyl ester] | 9.52
CC(=O)c1ccn(Cc2nc(NC(=O)c3nc(C4CC4)sc3-c3ccccc3)co2)n1 [Example 16, 2-Cyclopropyl-5-phenyl-thiazole-4-carboxylic acid [2-(3-acetyl-pyrazol-1-ylmethyl)-oxazol-4-yl]-amide] | 5.18
CC(=O)c1cccc(Cc2nc(NC(=O)OCc3cccc(OC(F)(F)F)c3)co2)c1 [Example 15, [2-(3-Acetyl-benzyl)-oxazol-4-yl]-carbamic acid 3-trifluoromethoxy-benzyl ester] | 7.32
CC(=O)CCCCc1nc(NC(=O)c2nc(C)oc2-c2cccc(C)c2)co1 [Example 6, 2-Methyl-5-m-tolyl-oxazole-4-carboxylic acid [2-(5-oxo-hexyl)-oxazol-4-yl]-amide] | 8.01
